Tests used:
Format in all cases: binding
HLA A*3001 = HLA A*3001 (Homo sapiens, UniProt P04439, D140H/D185E/E176W/F33S/G80R/H175R/K168Q/R138E/R41S); experiment: biochemical
HLA A*3201 = HLA A*3201 (Homo sapiens, UniProt P04439, A270S/D101S/D185E/E176V/E277Q/F133L/G103R/G107R/G231S/H175R/I121M/I218V/I322F/K168Q/L105A/L300P/L318F/M331R/P208A/P217A/Q94H/R106L/R138Q/S129P/T104I/T323A/T345S/V100E/V321M/V358M); experiment: biochemical
HLA A*6802 = HLA A*6802 (Homo sapiens, UniProt P04439, A269V/D140Y/D185E/E176V/E277Q/E87N/F33Y/G231S/I121R/I166T/I218V/L180W/L300P/L318F/N151K/P208A/P217A/Q86R/R138H/R169H/S129P/T345S/V36M)
HLA B*0801 = HLA B*0801 (Homo sapiens, UniProt P01889, A93T/A95T/D138N/E176V/E187T/K202T/Q94N/R180D/S35A/V36M/Y33D/Y91F); experiment: biochemical
HLA B*1501 = HLA B*1501 (Homo sapiens, UniProt P01889, A329T/A93T/A95T/C349S/D201E/D98Y/E187L/E204Q/E69M/E70A/K202T/N87E/Q94N/R155S/R180W/S121R/S35A/S48A/V306I/V36M/Y140S/Y91S); experiment: biochemical
HLA B*1503 = HLA B*1503 (Homo sapiens, UniProt P01889, A329T/A93T/A95T/C349S/D201E/D98Y/E187L/E204Q/K202T/N87E/Q94N/R155S/R180L/S121R/S35A/V306I/V36M/Y140S/Y91S); experiment: biochemical
HLA B*3501 = HLA B*3501 (Homo sapiens, UniProt P01889, A329T/A93T/A95T/C349S/D201E/D98Y/E176V/E187L/E204Q/E69T/I218V/K202T/L119I/Q94N/R155S/R180L/S121R/S35A/S48A/T118I/V127L/V306I/V36M/Y140S/Y91F)
HLA B*5101 = HLA B*5101 (Homo sapiens, UniProt P01889, A329T/A93T/A95T/C349S/D138N/D201E/D98Y/E187L/E204Q/E69T/G107R/I218V/K202T/L105A/L119W/N104I/Q94N/R106L/R155S/R180L/S101N/S121T/S35A/S48A/V306I/V36M/Y195H/Y91F)
HLA B*5301 = HLA B*5301 (Homo sapiens, UniProt P01889, A329T/A93T/A95T/C349S/D201E/D98Y/E176V/E187L/E204Q/E69T/G107R/I218V/K202T/L105A/L119I/N104I/Q94N/R106L/R155S/R180L/S101N/S121R/S35A/S48A/T118I/V127L/V306I/V36M/Y140S/Y91F)
HLA B*5401 = HLA B*5401 (Homo sapiens, UniProt P01889, A329T/C349S/D138N/D201E/E176V/E187T/E204Q/E69G/I76V/K202T/L119W/R155S/R180L/S121T/S35A/S48A/V127L/V306I/V36M/Y140L)
HLA B*5801 = HLA B*5801 (Homo sapiens, UniProt P01889, A329T/C349S/D201E/D98Y/E176V/E187L/E204Q/E69T/G107R/I218V/I90N/K202T/L105A/L119I/N104I/N87E/Q89R/Q94S/R106L/R155S/R180L/R86G/S101N/S121R/S35A/S48A/T118I/V127L/V306I/V36M/Y140S/Y91M)
HLA B*5802 = HLA B*5802 (Homo sapiens, UniProt P01889, A329T/C349S/D201E/D98Y/E176V/E187L/E204Q/E69T/G107R/I218V/I90N/K202T/L105A/N104I/N87E/Q89R/Q94S/R106L/R155S/R180L/R86G/S101N/S121W/S35A/S48A/V127L/V306I/V36M/Y140S/Y91M)
H-2 D^b = H-2 D^b (Mus musculus, UniProt P01899)
Chain of H-2 D^b (P01887 21-119): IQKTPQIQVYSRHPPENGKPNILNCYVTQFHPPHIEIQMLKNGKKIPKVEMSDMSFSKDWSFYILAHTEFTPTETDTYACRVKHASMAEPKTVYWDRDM
Chain of H-2 D^b (P01899 25-362): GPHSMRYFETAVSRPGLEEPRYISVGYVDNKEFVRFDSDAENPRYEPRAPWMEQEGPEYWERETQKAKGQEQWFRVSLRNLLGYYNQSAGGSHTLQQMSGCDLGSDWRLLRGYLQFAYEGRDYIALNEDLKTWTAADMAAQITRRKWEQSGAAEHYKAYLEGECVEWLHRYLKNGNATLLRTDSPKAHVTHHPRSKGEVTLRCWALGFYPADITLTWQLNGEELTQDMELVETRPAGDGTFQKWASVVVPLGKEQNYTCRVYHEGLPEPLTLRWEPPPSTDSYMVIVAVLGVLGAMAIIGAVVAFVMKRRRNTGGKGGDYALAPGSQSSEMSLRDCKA

H-2 D^d = H-2 D^d (Mus musculus, UniProt P01900)
Chain of H-2 D^d (P01900 whole entry, looked up): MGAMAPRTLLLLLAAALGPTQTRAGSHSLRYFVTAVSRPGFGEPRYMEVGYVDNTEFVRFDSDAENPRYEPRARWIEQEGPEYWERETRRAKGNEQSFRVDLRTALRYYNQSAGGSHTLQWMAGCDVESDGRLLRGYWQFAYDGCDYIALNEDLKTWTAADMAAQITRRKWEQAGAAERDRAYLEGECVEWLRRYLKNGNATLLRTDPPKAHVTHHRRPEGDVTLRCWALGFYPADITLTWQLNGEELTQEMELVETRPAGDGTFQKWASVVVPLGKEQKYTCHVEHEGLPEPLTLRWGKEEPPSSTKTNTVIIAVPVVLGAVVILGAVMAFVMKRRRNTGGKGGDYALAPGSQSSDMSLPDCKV

H-2 K^d = H-2 K^d (Mus musculus, UniProt P01902)
Chain of H-2 K^d (P01887 21-119): as the sequence (P01887 21-119) above
Chain of H-2 K^d (P01902 22-368): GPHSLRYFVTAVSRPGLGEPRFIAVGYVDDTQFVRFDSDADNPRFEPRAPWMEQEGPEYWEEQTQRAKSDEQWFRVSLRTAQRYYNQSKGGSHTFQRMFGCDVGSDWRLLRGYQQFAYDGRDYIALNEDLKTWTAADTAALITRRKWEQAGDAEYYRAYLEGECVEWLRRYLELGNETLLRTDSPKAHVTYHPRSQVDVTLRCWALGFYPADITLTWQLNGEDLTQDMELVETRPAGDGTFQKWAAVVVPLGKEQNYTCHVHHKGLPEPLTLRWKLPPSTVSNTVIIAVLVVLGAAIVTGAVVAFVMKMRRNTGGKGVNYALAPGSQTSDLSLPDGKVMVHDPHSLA

H-2 K^k = H-2 K^k (Mus musculus, UniProt P04223)
Chain of H-2 K^k (P01887 21-119): as the sequence (P01887 21-119) above
Chain of H-2 K^k (P04223 22-369): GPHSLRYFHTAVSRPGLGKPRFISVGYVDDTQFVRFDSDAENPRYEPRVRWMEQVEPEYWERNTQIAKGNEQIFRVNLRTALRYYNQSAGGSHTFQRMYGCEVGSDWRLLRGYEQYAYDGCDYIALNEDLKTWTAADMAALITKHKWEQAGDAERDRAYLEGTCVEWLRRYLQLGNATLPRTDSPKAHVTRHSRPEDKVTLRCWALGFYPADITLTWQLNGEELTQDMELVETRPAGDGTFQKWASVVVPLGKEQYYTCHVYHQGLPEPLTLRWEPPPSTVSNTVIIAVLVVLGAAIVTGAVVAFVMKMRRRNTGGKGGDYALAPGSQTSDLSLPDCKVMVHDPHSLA

Sequence | Normalized average relative binding affinity(ARB) (HLA A*3001) | Normalized average relative binding affinity(ARB) (HLA A*3201) | Normalized average relative binding affinity(ARB) (HLA A*6802) | Normalized average relative binding affinity(ARB) (HLA B*0801) | Normalized average relative binding affinity(ARB) (HLA B*1501) | Normalized average relative binding affinity(ARB) (HLA B*1503) | Normalized average relative binding affinity(ARB) (HLA B*3501) | Normalized average relative binding affinity(ARB) (HLA B*5101) | Normalized average relative binding affinity(ARB) (HLA B*5301) | Normalized average relative binding affinity(ARB) (HLA B*5401) | Normalized average relative binding affinity(ARB) (HLA B*5801) | Normalized average relative binding affinity(ARB) (HLA B*5802) | Normalized average relative binding affinity(ARB) (H-2 D^b) | Normalized average relative binding affinity(ARB) (H-2 D^d) | Normalized average relative binding affinity(ARB) (H-2 K^d) | Normalized average relative binding affinity(ARB) (H-2 K^k)
XXXXHXXXX [3064.0087] | 0.14 | 0.14 | 0.46 | 0.65 | 0.66 | 0.32 | 0.19 | 0.35 | 0.091 | 0.19 | 0.21 | 0.74 | 0.066 | 0.64 | 0.064 | 0.022
XXXXXVXXX [3064.0118] | 0.22 | 1.0 | 0.60 | 0.077 | 0.37 | 0.78 | 0.34 | 0.20 | 0.65 | 0.17 | 0.72 | 0.26 | 0.51 | 0.63 | 0.32 | 0.59
XXXXXXXYX [3064.0160] | 1.0 | 0.24 | 0.22 | 0.13 | 0.20 | 0.17 | 0.16 | 0.67 | 0.23 | 0.0018 | 0.42 | 1.0 | 0.97 | 0.40 | 0.56 | 0.38
XXXXCXXXX [3064.0082] | 0.12 | 0.15 | 0.65 | 0.020 | 0.87 | 0.62 | 0.37 | 0.38 | 0.13 | 0.39 | 0.14 | 0.53 | 0.060 | 0.045 | 0.19 | 0.095
XXXXXXSXX [3064.0136] | 0.042 | 0.14 | 0.40 | 0.35 | 0.65 | 0.32 | 0.22 | 0.51 | 0.087 | 0.098 | 0.14 | 0.044 | 0.34 | 0.038 | 0.92 | 0.16
XXXXGXXXX [3064.0086] | 0.29 | 0.31 | 1.0 | 0.029 | 0.77 | 0.65 | 0.35 | 0.31 | 0.32 | 0.19 | 0.38 | 0.37 | 0.064 | 0.11 | 0.30 | 0.17
XXXXFXXXX [3064.0085] | 0.38 | 1.0 | 0.87 | 0.21 | 0.52 | 0.78 | 0.63 | 0.29 | 1.0 | 1.0 | 0.43 | 0.089 | 0.044 | 0.16 | 0.13 | 0.19
XXXXPXXXX [3064.0093] | 0.53 | 0.16 | 0.16 | 0.011 | 0.89 | 0.46 | 0.37 | 0.50 | 0.14 | 0.51 | 0.19 | 0.075 | 0.038 | 0.023 | 0.094 | 0.072

— publication PMC2248166, “Quantitative peptide binding motifs for 19 human and mouse MHC class I molecules derived using positional scanning combinatorial peptide libraries” (Immunome Research, 2008)
